# Data published in article PMC7707621, “Oxidized Juncuenin B Analogues with Increased Antiproliferative Activity on Human Adherent Cell Lines: Semisynthesis and Biological Evaluation” (Journal of Natural Products, 2020).
# How the values were obtained:
# MCF-7 cells = test: MTT antiproliferative assay on MCF-7; format: cell-based, human; conditions: for inhibition at 10 µM / inhibition at 30 µM / IC50: Homo sapiens; for inhibition at 10 µM: MCF7, 10 μM; for inhibition at 10 µM / inhibition at 30 µM: read-out: Growth inhibition (% ± SEM), MCF-7; for inhibition at 30 µM: MCF7, 30 μM; for IC50: MCF7, MTT, 0.1–30 μM, 72 h, mean ± SEM, read-out: calculated IC50 values, MCF-7
# Description: (§1) The antiproliferative assays of the products were carried out by a standard MTT method on human breast (MCF-7, T47D), cervical (HeLa, SiHa, C33A), and ovarian (A2780) cancer cells, and NIH/3T3 mouse embryonic fibroblast cell lines. In the first step, the diastereomeric and racemic mixtures 1–11 and the starting compound, juncuenin B, were tested to obtain information about their antiproliferative activity.
# (§2) The antiproliferative activity and tumor selectivity of the compounds were measured by standard MTT assays. Tumor cell lines MCF-7, T47D, HeLa, A2780, and noncancerous NIH/3T3 were provided by European Collection of Authenticated Cell Cultures (ECACC, Salisbury, UK); cell lines SiHa and C33A by LGC Standards GmbH (Wesel, Germany). All chemicals and materials used for the antiproliferative assays were purchased from Sigma Aldrich Ltd. (Budapest, Hungary).
# (§3) Growth-inhibition properties of racemates and pure enantiomer compounds were determined by standard MTT assays on six human malignant gynecological cell lines (MCF-7, T47D, HeLa, SiHa, C33A, A2780). To investigate tumor selectivity, the MTT assay was repeated on mouse embryonic fibroblast cells (NIH/3T3) under the same conditions. All cell lines were maintained in minimal essential medium (MEM) supplemented with 10% fetal bovine serum, 1% nonessential amino acids, and 1% penicillin–streptomycin–amphotericin B mixture, and were stored in humidified air containing 5% CO2 at 37 °C. All cell types were seeded into 96–well plates at a density of 5000 with the exception of C33a, which was seeded at a density of 10 000 and treated by increasing concentrations (0.1–30 μM) of the compounds for 72 h under cell culturing conditions. After the incubation, 5 mg/mL MTT [3-(4,5-dimethylthiazol-2-yl)-2,5-diphenyltetrazolium bromide] solution was added to samples for 4 h and precipitated blue formazan crystals were dissolved in DMSO. Absorbance values of the samples were measured at 545 nm using a microplate reader (Stat Fax-2100, Awareness Technologies Inc., Palm City, FL, USA) and untreated cells were used as control. Normalized sigmoidal dose–response curves were fitted to the determined data and the IC50 values were calculated by GraphPad Prism 5.01 (GraphPad Software, San Diego, CA, USA). Cisplatin (Ebewe Pharma GmbH, Unterach, Austria) was used as a reference agent in the same concentration range.
# T47D cells = test: MTT antiproliferative assay on T47D; format: cell-based, human; conditions: for inhibition at 10 µM / inhibition at 30 µM / IC50: Homo sapiens, T47D; for inhibition at 10 µM / inhibition at 30 µM: read-out: Growth inhibition (% ± SEM), T47d; for IC50: MTT, 0.1–30 μM, 72 h, mean ± SEM, read-out: calculated IC50 values, T47D
# Description: as §1, §2, §3
# HeLa cells = test: MTT antiproliferative assay on HeLa; format: cell-based, human; conditions: for inhibition at 10 µM / inhibition at 30 µM / IC50: Homo sapiens, HeLa; for inhibition at 10 µM / inhibition at 30 µM: read-out: Growth inhibition (% ± SEM), HeLa; for IC50: MTT, 0.1–30 μM, 72 h, mean ± SEM, read-out: calculated IC50 values, HeLa
# Description: as §1, §2, §3
# SiHa cells = test: MTT antiproliferative assay on SiHa; format: cell-based, human; conditions: for inhibition at 10 µM / inhibition at 30 µM / IC50: Homo sapiens, SiHa; for inhibition at 10 µM / inhibition at 30 µM: read-out: Growth inhibition (% ± SEM), SiHa; for IC50: MTT, 0.1–30 μM, 72 h, mean ± SEM, read-out: calculated IC50 values, SiHa
# Description: as §1, §2, §3
# C33A cells = test: MTT antiproliferative assay on C33A; format: cell-based, human; conditions: for inhibition at 10 µM / inhibition at 30 µM / IC50: Homo sapiens, C-33-A; for inhibition at 10 µM / inhibition at 30 µM: read-out: Growth inhibition (% ± SEM), C33a; for IC50: MTT, 0.1–30 μM, 72 h, mean ± SEM, read-out: calculated IC50 values, C33A
# Description: as §1, §2, §3
# A2780 cells = test: MTT antiproliferative assay on A2780; format: cell-based, human; conditions: for inhibition at 10 µM / inhibition at 30 µM / IC50: Homo sapiens; for inhibition at 10 µM: A2780, 10 μM; for inhibition at 10 µM / inhibition at 30 µM: read-out: Growth inhibition (% ± SEM), A2780; for inhibition at 30 µM: A2780, 30 μM; for IC50: A2780, MTT, 0.1–30 μM, 72 h, mean ± SEM, read-out: calculated IC50 values, A2780
# Description: as §1, §2, §3
# [1] = test system: NIH/3T3 mouse embryonic fibroblast cells; test: MTT assay for tumor selectivity on NIH/3T3; format: cell-based; conditions: Mus musculus, NIH3T3; for inhibition at 10 µM / inhibition at 30 µM: read-out: Growth inhibition (% ± SEM), NIH; for IC50: MTT, 0.1–30 μM, 72 h, mean ± SEM, read-out: calculated IC50 values, NIH/3T3
# Description: as §1, §2, §3
Compound,inhibition at 10 µM (MCF-7 cells) [%],inhibition at 30 µM (MCF-7 cells) [%],IC50 (MCF-7 cells) [µM],inhibition at 10 µM (T47D cells; 10 μM) [%],inhibition at 30 µM (T47D cells; 30 μM) [%],IC50 (T47D cells) [µM],inhibition at 10 µM (HeLa cells; 10 μM) [%],inhibition at 30 µM (HeLa cells; 30 μM) [%],IC50 (HeLa cells) [µM],inhibition at 10 µM (SiHa cells; 10 μM) [%],inhibition at 30 µM (SiHa cells; 30 μM) [%],IC50 (SiHa cells) [µM],inhibition at 10 µM (C33A cells; 10 μM) [%],inhibition at 30 µM (C33A cells; 30 μM) [%],inhibition at 10 µM (A2780 cells) [%],inhibition at 30 µM (A2780 cells) [%],inhibition at 10 µM [1] [%],inhibition at 30 µM [1] [%],IC50 [1] [µM],IC50 (C33A cells) [µM],further results
"C=CC1=C(C)C(=O)C=C2C3=C(CC[C@@]21OC)[C@](C)(OC)C(=O)C=C3 [Compound 1c, 2,6-dioxo-1,8a-dimethoxy-1,7-dimethyl-8-vinyl-9,10-dihydrophenanthrenes]",10.2 ± 4.97,28.1 ± 1.14,> 30,36.4 ± 2.76,84.5 ± 1.63,12.5 ± 0.9,28.3 ± 1.66,36.1 ± 0.87,> 30,< 10,57.5 ± 2.33,28.1 ± 0.1,85.7 ± 1.16,96.31 ± 0.17,68.5 ± 0.75,98.88 ± 0.1,< 10,69.4 ± 1.87,,,
"C=CC1=C(C)C(=O)C=C2C3=C(CCC21OC)C(C)(OC)C(=O)C=C3 (stereo not shown) [1a–1d, 2,6-dioxo-1,8a-dimethoxy-1,7-dimethyl-8-vinyl-9,10-dihydrophenanthrenes]",28.7 ± 1.81,67.1 ± 1.9,11.6,14.6 ± 4.44,76 ± 2.1,,12.7 ± 1.94,86.7 ± 1.22,,18.1 ± 3.53,77.9 ± 0.78,20,74.3 ± 0.8,94.97 ± 0.12,67.1 ± 1.37,94.93 ± 0.94,,,17.7 ± 0.7,,
"C=CC1=C(C)C(=O)C=C2C3=C(CC[C@]21OC)[C@](C)(OC)C(=O)C=C3 [Compound 1d, 2,6-dioxo-1,8a-dimethoxy-1,7-dimethyl-8-vinyl-9,10-dihydrophenanthrenes]",< 10,34.6 ± 1.38,> 30,< 10,41.8 ± 1.15,> 30,11.4 ± 2.71,25.1 ± 3.84,> 30,< 10,11.6 ± 2.33,> 30,22.1 ± 1.44,89.4 ± 1,45.1 ± 2.08,92.39 ± 0.36,< 10,30.7 ± 2.04,> 30,13 ± 0.2,IC50 (A2780 cells): 11 ± 0.4 µM
"C=CC1=C(C)C(=O)C=C2C3=C(CCC21OCC)C(C)(OCC)C(=O)C=C3 (single isomer, unassigned) [Compound 6a]",19.6 ± 1.7,,> 30,< 10,,22.9 ± 1.6,< 10,,25.9 ± 0.3,< 10,,29.7 ± 0.2,,,,,,,24.5 ± 1.9,14.1 ± 0.2,"Growth inhibition (% ± SEM), MCF-7 (MCF-7 cells; 30 μM): 45.64±0.26%; Growth inhibition (% ± SEM), T47d (T47D cells; 30 μM): 63.48±0.80%; Growth inhibition (% ± SEM), HeLa (HeLa cells; 30 μM): 67.85±1.23%; Growth inhibition (% ± SEM), SiHa (SiHa cells; 30 μM): 68.74±1.56%; Growth inhibition (% ± SEM), C33a (C33A cells; 10 μM): 21.08±1.92%; Growth inhibition (% ± SEM), C33a (C33A cells; 30 μM): 93.17±0.50%; Growth inhibition (% ± SEM), A2780 (A2780 cells; 10 μM): 43.71±2.91%; Growth inhibition (% ± SEM), A2780 (A2780 cells; 30 μM): 93.85±0.75%; IC50 (A2780 cells): 11.2 ± 0.3 µM"
C=CC1=C(C)C(=O)C=C2c3ccc(O)c(C)c3CC[C@@]21OC [Compound 4a],61.5 ± 1.87,58.5 ± 0.86,,37 ± 1.07,48.1 ± 1.47,> 30,88.1 ± 0.89,62.3 ± 2,,< 10,26.3 ± 1.36,> 30,58.41 ± 0.31,66.6 ± 0.74,44.5 ± 2.01,73.18 ± 0.4,19.2 ± 1.41,51.7 ± 1.68,,,
"C=CC1=C(C)C(=O)C=C2C3=C(CC[C@]21OC)[C@@](C)(OC)C(=O)C=C3 [Compound 1b, 2,6-dioxo-1,8a-dimethoxy-1,7-dimethyl-8-vinyl-9,10-dihydrophenanthrenes]",14.2 ± 3.54,31.9 ± 1.28,> 30,13.6 ± 1.33,43.8 ± 1.31,> 30,16.3 ± 2.68,42.6 ± 2.07,> 30,< 10,27.7 ± 1.96,> 30,46 ± 2.01,95.12 ± 0.44,52.2 ± 1.02,96.61 ± 0.23,< 10,41.9 ± 1.35,,10.2 ± 1.7,IC50 (A2780 cells): 9 ± 1 µM
"C=CC1=C(C)C(=O)C=C2C3=C(CCC21OCC)C(C)(OCC)C(=O)C=C3 (single isomer, unassigned) [Compound 6b]",,,,,,,,,,,,,,,,,,,,,"Growth inhibition (% ± SEM), MCF-7 (MCF-7 cells; 10 μM): 14.17±2.25%; Growth inhibition (% ± SEM), MCF-7 (MCF-7 cells; 30 μM): 21.81±2.36%; Growth inhibition (% ± SEM), T47d (T47D cells; 10 μM): < 10%; Growth inhibition (% ± SEM), T47d (T47D cells; 30 μM): < 10%; Growth inhibition (% ± SEM), HeLa (HeLa cells; 10 μM): < 10%; Growth inhibition (% ± SEM), HeLa (HeLa cells; 30 μM): < 10%; Growth inhibition (% ± SEM), SiHa (SiHa cells; 10 μM): < 10%; Growth inhibition (% ± SEM), SiHa (SiHa cells; 30 μM): < 10%; Growth inhibition (% ± SEM), C33a (C33A cells; 10 μM): < 10%; Growth inhibition (% ± SEM), C33a (C33A cells; 30 μM): < 10%; Growth inhibition (% ± SEM), A2780 (A2780 cells; 10 μM): < 10%; Growth inhibition (% ± SEM), A2780 (A2780 cells; 30 μM): < 10%"
